Values of other authors in patent US20050203062A1, “Use of tagatose in laxatives” (Spherix Incorporated, priority 2002, published 2005).

Key:
[1] = amounts approaching 30 or 40 grams per day
Type 2 diabetes = details: clinical trials

## O=C(CO)[C@@H](O)[C@@H](O)[C@H](O)CO [tagatose, D-tagatose]
Blood glucose; after tagatose itself
  rise in blood glucose: does not produce a rise in blood glucose
Blood glucose; subsequent intake of glucose-producing foods
  rise in blood glucose from subsequent intake of glucose-producing foods: blunts the rise in blood glucose
[1]
  laxation effect: known to have a Taxation effect
Type 2 diabetes
  treatment of Type 2 diabetes: effective treatment for Type 2 diabetes
